Consider five compounds from patent US20100028358A1, “Compositions and Methods for Controlling Tissue Factor Signaling Specificity” (priority 2005, published 2010).

Test [1] concerns the target PDI association with TF (Homo sapiens, UniProt P07237). The test can be described thus: Cell surface MPB/NHS labelling and TF immunoprecipitation (PDI association with TF).
Method: Cell surface labelling, immunoprecipitation, confocal imaging Cells were washed and labelled in HEPES buffer with 1.5 mM calcium chloride with either 100 μM MPB or 0.5 mg/ml NHS biotin at 4° C. for 20 min. […] Blots were digitized for densitometry using NIH Image Scion. Cells were stained on ice with directly conjugated antibodies for confocal microscopy using a Nikon TE2000-U microscope. Optical sections of each fluorophor were merged using Adobe Photoshop.
The target in test [2] is tissue factor (TF) coagulant activity (Homo sapiens, UniProt P13726). Kind of test: TF coagulant activity (Xa generation) on HaCaT cells. The class given is cell-based.
For test [3], the target named is TF-PAR2 complex (Homo sapiens, UniProt P13726). The test can be described thus: TF-PAR2 complex co-immunoprecipitation from HaCaT cells. The format is cell-based. To be noted: Hg2+ pretreatment, high Ca2+ cells. The text has this:
Additional studies as illustrated in FIG. 7 indicate that TF-VIIa signaling requires TF.PAR2 complex formation. […] Loading controls were not feasible due to background, because no PAR suitable antibody from a different species was available for Western-blotting. […] MPB-labeled cells were immunoprecipitated with MAb-9C3 or MAb-10H10 and probed for PDI, TF or thiol-biotinylation with MPB.

Test [4] concerns TF-VIIa signaling. Kind of test: TF-VIIa signaling in HaCaT cells (MAP kinase phosphorylation).

Read-outs that look alike come from different tables or passages of the source. Where a SMILES comes first, the peptide text is derived from it. Bridges are numbered along the chain shown (N, C = ends). [ ]: non-standard residue; d: D form. The star is where a group is joined. Ileψ(thiazoline)Cys = CC[C@H](C)[C@H](N)C1=N[C@H](C(=O)*)CS1; dOrn = NCCC[C@@H](N)C(=O)O

tissue factor (TF) coagulant activity, sequence (P13726 33-295): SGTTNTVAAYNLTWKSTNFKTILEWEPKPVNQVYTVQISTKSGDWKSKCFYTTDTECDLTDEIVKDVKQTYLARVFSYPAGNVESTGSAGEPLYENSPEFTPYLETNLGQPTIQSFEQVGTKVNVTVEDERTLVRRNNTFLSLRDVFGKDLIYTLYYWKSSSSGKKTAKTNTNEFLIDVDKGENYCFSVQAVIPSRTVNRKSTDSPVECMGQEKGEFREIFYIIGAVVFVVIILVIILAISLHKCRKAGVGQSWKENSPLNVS
PDI association with TF, sequence (P07237 18-508): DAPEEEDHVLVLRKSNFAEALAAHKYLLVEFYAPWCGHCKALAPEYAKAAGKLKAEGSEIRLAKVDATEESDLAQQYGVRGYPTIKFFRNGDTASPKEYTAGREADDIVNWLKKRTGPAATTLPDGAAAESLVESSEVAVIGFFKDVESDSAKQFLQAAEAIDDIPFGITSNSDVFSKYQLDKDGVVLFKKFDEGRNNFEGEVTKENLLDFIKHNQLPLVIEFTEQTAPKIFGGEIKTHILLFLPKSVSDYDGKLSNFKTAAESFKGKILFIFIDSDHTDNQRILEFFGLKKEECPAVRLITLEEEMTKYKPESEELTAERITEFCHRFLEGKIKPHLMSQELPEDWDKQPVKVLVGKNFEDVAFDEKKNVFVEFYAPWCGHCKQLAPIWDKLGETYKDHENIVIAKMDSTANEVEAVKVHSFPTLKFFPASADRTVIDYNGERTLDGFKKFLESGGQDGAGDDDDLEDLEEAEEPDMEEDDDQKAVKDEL
TF-PAR2 complex, sequence (P13726 33-295, one chain of several): as the sequence (P13726 33-295) above

Regarding `[Cl][Hg][Cl]` [HgCl2], the “Association (co-precipitation) of PDI with TF” value in test [1] is listed as “specifically disrupted the association of PDI with TF”. Also, in test [2], the “Concentration required to enhance TF coagulant activity” value was 50 to 100 µM, the “HgCl2 activation of coagulation in the presence of bacitracin” value is recorded as “did not increase coagulation in the presence of bacitracin”, the “TF coagulant activity in high Ca2+ cells” value was “increased TF coagulant activity substantially” and the “TF coagulant activity in low Ca2+ cells” value was “little effect”. Besides, the “PAR2 complex formation with TF in MAb-5G9 immunoprecipitates” value in test [3] is recorded as “abolished PAR2 complex formation with TF”.
Regarding `N[C@@H](CCC(=O)N[C@@H](CS)C(=O)NCC(=O)O)C(=O)O` [GSH, reduced glutathione], the “TF coagulant activity after Hg2+-induced activation and washout” value in test [2] is given as “no effect on TF activity”.
For the compound `CC[C@H](C)[C@H](N)C1=N[C@H](C(=O)N[C@@H](CC(C)C)C(=O)N[C@H](CCC(=O)O)C(=O)N[C@H](C(=O)N[C@H]2CCCCNC(=O)[C@H](CC(N)=O)NC(=O)[C@@H](CC(=O)O)NC(=O)[C@H](Cc3cnc[nH]3)NC(=O)[C@@H](Cc3ccccc3)NC(=O)[C@H]([C@@H](C)CC)NC(=O)[C@@H](CCCN)NC2=O)[C@@H](C)CC)CS1` [bacitracin] ({Ileψ(thiazoline)Cys}-L[dE]IK[dOrn]I[dF]H[dD]N; lactam 4-C), the TF-VIIa signaling entry in test [4] (HaCaT cells, 10 nM VIIa) is “inhibited TF-VIIa signaling”. Further, the “Association (co-precipitation) of PDI with TF” value in test [1] (high Ca2+ HaCaT cells) is listed as “prevented the co-precipitation of PDI with TF”. Moreover, in test [2] (HgCl2 with bacitracin), the “HgCl2 activation of coagulation in the presence of bacitracin” value is “reversible inhibitor of HgCl2 activation”. In test [2] (high Ca2+ HaCaT cells, 100 μM HgCl2 for 2 minutes, bacitracin 3 mM), the “TF coagulant activity in high Ca2+ cells” value is on record as “slightly increased coagulant function of TF”.
Take `N[C@@H](CCC(=O)N[C@@H](CSN=O)C(=O)NCC(=O)O)C(=O)O` [S-nitrosoglutathione]: the “TF coagulant activity after Hg2+-induced activation and washout” value in test [2] was “sufficient to suppress TF coagulant activity”.
Regarding `C[C@@H]1C[C@@H]([C@H](O)CC2CC(=O)NC(=O)C2)C(=O)[C@@H](C)C1` [cycloheximide], in test [4], the TF-VIIa signaling entry was “prevented TF-VIIa signaling”.
